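48-hour exposure; five concentrations; linearly interpolated endpoints. GI50 = concentration required for 50% inhibition of growth. At the TGI there is no net growth.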
Assays:
Assay in all cases: NCI anticancer screen, dose series, 48 h
786-0 renal = system: 786-0 renal
EKVX NSCLC = system: EKVX NSCLC
MDA-N = system: MDA-N
OVCAR-8 ovarian = system: OVCAR-8 ovarian
PC-3 prostate = system: PC-3 prostate
TK-10 renal = system: TK-10 renal
UACC-257 melanoma = system: UACC-257 melanoma
UACC-62 melanoma = system: UACC-62 melanoma
UO-31 renal = system: UO-31 renal
KM20L2 colon = system: KM20L2 colon
XF 498 CNS = system: XF 498 CNS

| SMILES | TGI (786-0 renal) [µM] | TGI (EKVX NSCLC) | TGI (MDA-N) | TGI (OVCAR-8 ovarian) | TGI (PC-3 prostate) | TGI (TK-10 renal) | TGI (UACC-257 melanoma) | TGI (UACC-62 melanoma) | TGI (UO-31 renal) [µM] | GI50 (EKVX NSCLC) | GI50 (OVCAR-8 ovarian) | GI50 (PC-3 prostate) | GI50 (TK-10 renal) | GI50 (UACC-257 melanoma) | GI50 (UACC-62 melanoma) | TGI (KM20L2 colon) [µM] | TGI (XF 498 CNS) [µM] | GI50 (MDA-N) [µg/mL] | GI50 (UO-31 renal) [µM] |
| --- | --- | --- | --- | --- | --- | --- | --- | --- | --- | --- | --- | --- | --- | --- | --- | --- | --- | --- | --- |
| O=C(CC(c1ccccc1)C1C(=O)NC(=S)NC1=O)c1ccc([N+](=O)[O-])cc1 (stereo not drawn) | > 100 | > 100 µM | > 100 µM | > 100 µM | > 100 µM | > 100 µM | > 100 µM | > 100 µM | > 100 | – | – | – | – | – | – | – | – | – | – |
| Clc1ccc(Nc2nc(Nc3ccccc3)nc(Nc3ccc(-c4cc(-c5ccc(Cl)cc5)on4)cc3)n2)cc1 | – | 88.4 µM | – | > 100 µM | > 100 µM | > 100 µM | > 100 µM | 72.4 µM | – | 3.14 µM | 21.4 µM | 8.4 µM | 19.2 µM | 29.8 µM | 16.7 µM | – | – | – | – |
| Nc1nnc(CCC(=O)Nc2cc(Cl)ccc2Cl)n1N | – | > 100 µM | – | > 100 µM | – | > 100 µM | > 100 µM | > 100 µM | > 100 | – | – | – | – | – | – | > 100 | > 100 | – | – |
| O=C1C2Cc3c(n(C(=O)c4ccccc4)c4ccccc34)CC2C(=O)N1c1ccc(Nc2ccc(N3C(=O)C4Cc5c(n(C(=O)c6ccccc6)c6ccccc56)CC4C3=O)cc2)cc1 (stereo not drawn) | > 100 | > 100 µM | > 100 µM | > 100 µM | > 100 µM | > 100 µM | > 100 µM | > 100 µM | > 100 | – | – | – | – | – | – | – | – | – | – |
| CC1=CC(O)C(C(O)(C(F)(F)F)C(F)(F)F)C(C)(C)C1 (stereo not drawn) | – | > 10 µM | > 10 µM | > 10 µM | > 10 µM | > 10 µM | > 10 µM | > 10 µM | – | – | – | – | – | – | – | – | – | – | – |
| OCCCSCCO | > 100 | > 100 µM | > 100 µM | > 100 µM | > 100 µM | > 100 µM | > 100 µM | > 100 µM | > 100 | – | – | – | – | – | – | – | – | – | – |
| O=C(O)C(O)C(O)C(O)C(O)C(=O)O (stereo not drawn) | > 100 | > 100 µM | > 100 µM | > 100 µM | > 100 µM | – | > 100 µM | > 100 µM | > 100 | – | – | – | – | – | – | – | – | – | – |
| CC1C(=O)c2cc3c(cc2CCN(C)Cc2c1ccc1c2OCO1)OCO3 (stereo not drawn) | – | > 75 µg/mL | > 75 µg/mL | > 75 µg/mL | > 75 µg/mL | > 75 µg/mL | > 75 µg/mL | > 75 µg/mL | – | > 75 µg/mL | > 75 µg/mL | 24 µg/mL | > 75 µg/mL | 36.1 µg/mL | 45.2 µg/mL | – | – | > 75 | – |
| Cc1cc2ccc(OC(=O)c3ccc(N=C(N)N)cc3)cc2oc1=O | 64.6 | > 100 µM | 83.8 µM | > 100 µM | 78.5 µM | 49.8 µM | > 100 µM | 79.1 µM | > 100 | – | – | – | – | – | – | – | – | – | – |
| O=C1/C(=C/c2[nH]ncc2-c2ccc(Cl)cc2)C(=O)N(c2ccccc2)C1c1ccccc1 (stereo not drawn) | 44.7 | 51.3 µM | 36.9 µM | – | > 100 µM | > 100 µM | 64.7 µM | 27.8 µM | 58.7 | – | – | – | – | – | – | – | – | – | – |
| O/C(=C\c1nc2ccccc2nc1/C=C(\O)c1ccc(F)cc1)c1ccc(F)cc1 | > 100 | > 100 µM | > 100 µM | > 100 µM | > 100 µM | > 100 µM | > 100 µM | > 100 µM | > 100 | – | – | – | – | – | – | – | – | – | – |
| Nc1cc(S(=O)(=O)O)cc2ccc(S(=O)(=O)O)cc12 | > 100 | > 100 µM | > 100 µM | > 100 µM | > 100 µM | > 100 µM | > 100 µM | > 100 µM | > 100 | – | – | – | – | – | – | – | – | – | – |
| Cc1n[n+]([O-])c(C)cc1[N+](=O)[O-] | > 100 | 45.4 µM | – | 31.6 µM | 65.2 µM | 24.5 µM | 29 µM | 31.5 µM | 29.7 | – | – | – | – | – | – | – | – | – | – |
| CC1(C(=O)O)C[C@](C)(C(=O)OCc2ccccc2)C[C@](C)(C(=O)OCc2ccccc2)C1 (stereo partly drawn) | > 100 | 75.7 µM | > 100 µM | > 100 µM | > 100 µM | > 100 µM | > 100 µM | 45.4 µM | 40.7 | – | – | – | – | – | – | – | – | – | – |
| O=C(Cc1csc2nc(-c3ccc(Cl)cc3)cn12)N/N=C/c1ccccc1O | – | > 100 µM | – | 78.9 µM | > 100 µM | – | > 100 µM | 38.9 µM | 43.9 | 3.26 µM | 3.01 µM | 3.46 µM | – | 4.74 µM | 3.42 µM | – | – | – | 0.504 |
| O=S(=O)(O)c1ccc2c(N=Nc3ccc(N=Nc4ccccc4)cc3)c(O)c(S(=O)(=O)O)cc2c1 | > 100 | > 100 µM | > 100 µM | > 100 µM | > 100 µM | > 100 µM | > 100 µM | > 100 µM | > 100 | – | – | – | – | – | – | – | – | – | – |
| N=c1ccc2nc(N)nn(O)c-2c1 | > 100 | > 100 µM | > 100 µM | > 100 µM | > 100 µM | > 100 µM | > 100 µM | > 100 µM | > 100 | – | – | – | – | – | – | – | – | – | – |

From PubChem BioAssay (NCI)
